Measurements: patent publication US6291463A, “1-(Benzothiazol-2-yl)-4-(1-phenylmethyl) piperazines: dopamine receptor subtype specific ligands” (Neurogen Corporation, priority 1999, dated 2001)
Where a name gives a salt, the structure may show the parent alone.

Columns and labels:
D4 receptors = assay: D4 receptor binding (displacement of 3H-YM 09151-2); set-up: species or system African Green monkey; conditions: COS cells with recombinant D4 receptors; 0.5 nM 3H-YM 09151-2; Table 2
Method: (§1) Assay for D2 and D4 Receptor Binding Activity
(§2) Pellets of COS cells containing recombinantly produced D2 or D4 receptors from African Green monkey were used for the assays. The sample is homogenized in 100 volumes (w/vol) of 0.05 M Tris HCl buffer at 4° C. and pH 7.4. The sample is then centrifuged at 30,000×g and resuspended and rehomogenized. The sample is then centrifuged as described and the final tissue sample is frozen until use. The tissue is resuspended 1:20 (wt/vol) in 0.05 M Tris HCl buffer containing 100 mM NaCl.
(§3) Incubations are carried out at […] and contain 0.4 ml of tissue sample, 0.5 nM ^3 H-YM 09151-2 (Nemonapride, cis-5-Chloro-2-methoxy-4-(methylamino)-N-(2-methyl-2-(phenylmethyl)-3-pyrroli-dinyl)benzamide) and the compound of interest in a total incubation of 1.0 ml. Nonspecific binding is defined as that binding found in the presence of 1 mM spiperone; without further additions, nonspecific binding is less than 20% of total binding.

D2 receptors = D2 receptors (Chlorocebus aethiops, UniProt P52702); assay: D2 receptor binding (displacement of 3H-YM 09151-2); set-up: species or system African Green monkey; conditions: COS cells with recombinant D2 receptors; 0.5 nM 3H-YM 09151-2; Table 2
Sequence of D2 receptors (P52702 whole entry): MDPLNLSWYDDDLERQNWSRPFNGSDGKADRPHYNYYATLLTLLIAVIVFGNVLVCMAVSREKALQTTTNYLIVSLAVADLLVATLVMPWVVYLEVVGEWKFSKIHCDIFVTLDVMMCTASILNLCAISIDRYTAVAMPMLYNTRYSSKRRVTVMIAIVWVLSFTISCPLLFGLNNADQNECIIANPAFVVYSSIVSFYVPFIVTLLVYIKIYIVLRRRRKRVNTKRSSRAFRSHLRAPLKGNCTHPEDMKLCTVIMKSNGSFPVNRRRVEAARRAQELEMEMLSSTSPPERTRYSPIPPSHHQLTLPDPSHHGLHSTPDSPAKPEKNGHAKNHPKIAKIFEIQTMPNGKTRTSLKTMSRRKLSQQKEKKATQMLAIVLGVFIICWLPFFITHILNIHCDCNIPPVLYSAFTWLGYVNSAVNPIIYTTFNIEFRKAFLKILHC
Method: as §1, §2, §3

SMILES | Ki (D4 receptors) [nM] | Ki (D2 receptors) [nM]
Cc1ccc(CN2CCN(c3nc4ccccc4s3)CC2)cc1 [Compound 2A, 1-(benzothiazol-2-yl)-4-(1-[4-methylphenyl]methyl)piperazine oxalate] | 25 | 3510
Clc1ccc(CN2CCN(c3nc4ccccc4s3)CC2)cc1 [Compound 1A, 1-(Benzothiazol-2-yl)-4-(1-[4-chlorophenyl]methyl)piperazine] | 14 | > 4000
c1ccc2cc(CN3CCN(c4nc5ccccc5s4)CC3)ccc2c1 [Compound 4A, 1-(benzothiazol-2-yl)-4-(1-[2-naphthyl]methyl)piperazine oxalate] | 76 | 3510
